This is an account of results in patent publication US4935505A, “Novel azolo [1,3] diazepine-5-ol compounds and their uses” (priority 1988, dated 1990).

pKi: −log10 of the molar value. Like-named read-outs stand apart in the source and are kept apart here.

The target in one data set is adenosine deaminase (Homo sapiens, UniProt P00813). In words: Inhibition of adenosine deaminase (ADA), adenosine as substrate, purified enzyme. The class given is biochemical. From the text: The mixture of the R and S isomers of the 4,5,6-trihydro-1-(β-D-ribofuranosyl) pyrazolo [5,4-d]
adenosine deaminase, sequence (P00813 whole entry): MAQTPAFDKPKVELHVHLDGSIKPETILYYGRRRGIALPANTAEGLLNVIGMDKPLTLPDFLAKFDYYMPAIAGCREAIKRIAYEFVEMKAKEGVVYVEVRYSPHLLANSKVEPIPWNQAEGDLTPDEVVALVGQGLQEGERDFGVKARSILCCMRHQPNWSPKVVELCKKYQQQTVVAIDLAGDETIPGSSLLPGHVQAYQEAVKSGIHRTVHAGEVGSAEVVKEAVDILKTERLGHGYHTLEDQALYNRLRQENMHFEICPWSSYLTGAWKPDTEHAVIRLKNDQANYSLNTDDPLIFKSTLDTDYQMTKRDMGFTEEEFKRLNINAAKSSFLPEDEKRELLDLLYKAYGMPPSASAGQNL
For data set [1] the following is noted: clinical trials; cited from earlier work.
For data set [2], the system named is human erythrocytic adenosine deaminase. The note with it: cited from earlier work.
Setting [3] is: Inhibition of Adenosine Deaminase by Target Compounds, adenosine as substrate, purified enzyme, read-out: Ki.

Broadly, the pKi is the Ki on a negative log10 scale, so that one unit is a factor of ten. Consider `OC[C@H]1O[C@@H](n2nnc3c2N=CNC[C@@H]3O)[C@H](O)[C@@H]1O` [37 (S), 6,7,8-Trihydro-3-β-D-ribofuranosyl-v-triazole [4,5-d] [1,3] diazepin-8(R,S)-ol], for which the pKi at adenosine deaminase (setting [3]) is 4.07.

In the case of `OC[C@H]1O[C@@H](n2nnc3c2N=CNC[C@H]3O)[C@H](O)[C@@H]1O` [4 (R), 6,7,8-Trihydro-3-β-D-ribofuranosyl-v-triazole [4,5-d] [1,3] diazepin-8(R,S)-ol], the pKi on adenosine deaminase (Preliminary estimates based on conventional kinetic analysis, adenosine as substrate, purified enzyme, read-out: Ki) was 8.70. The “type of inhibition of ADA” value on adenosine deaminase (adenosine as substrate, purified enzyme, listed as Compound 4) is “very tight-bindinginhibitor”; on adenosine deaminase (adenosine as substrate, purified enzyme, listed as compound 4) it was “potent tight-binding inhibitor”. Consider `OC[C@H]1O[C@@H](n2cnc3c2NC=NC[C@H]3O)C[C@@H]1O` [pentostatin, 8(R)-3-(2-deoxy-β-D-erythro-pentofuranosyl)-3,6,7,8-tetrahydroimidazo[4,6-d][1,3]diazepin-8-ol], for which the acute renal toxicity result in data set [1] is given as “acute renal toxicity”. Also, the tight binding inhibition result in data set [2] was “exceedingly tight binding inhibitors”.

On adenosine deaminase, `OC[C@H]1O[C@@H](n2cnc3c2N=CNC[C@H]3O)[C@H](O)[C@@H]1O` [2, coformycin, reference compound] gave a pKi of 9.92. Besides, in data set [2], the tight binding inhibition result is on record as “exceedingly tight binding inhibitors”.

In the case of `OC[C@H]1O[C@@H](n2ncc3c2N=CNCC3O)[C@H](O)[C@@H]1O` (mixture of isomers) [(3 + 26), 4,5,6-Tihydro-1-(β-D-ribofuranosyl)pyrazolo [5,4-d]-[1,3] diazepin-4(R,S)-ol], the pKi on adenosine deaminase (setting [3]) was 5.70.
